# “Also recorded” adds a separate entry of the source.
# How the values were obtained:
# [1] = Oral glucose tolerance test; format: in vivo, mice; conditions: for blood glucose levels at all time points after administration: P<0.05
# Description: Glucose was formulated in water at a concentration of 150 mg/ml and dosed at a volume of 10 ml/kg to produce a dose of 1.5 g/kg. Glucose was measured using the Ascensia II Elite XL glucose monitor ([…]). Measure glucose by taking a small (2 mm) section off the tip of the tail, bleed onto glucose test strip and measure. Data for each time point analyzed by ANOVA and post-hoc Tukey's test. A p value of less then 0.05 was used to indicate statistical significance. […]
# In study 1, mice were dosed with Compound 102 and glucose as follows:
# In study 2, mice were dosed with Compound 102 and glucose as follows.
# Study 3 tested Compound 102 and was conducted as follows: […]
# [2] = Western Diet study (weight, food intake, fat pads); format: in vivo, Male CD1/ICR mice
# Description: Male CD1/ICR mice were obtained from Harlan. The study was started when mice were 8 weeks of age. Prior to initiation of the study mice fasted for 24 hrs. Mice were fed “Western Diet” that was designed to approximate the “typical” human diet of North America and Europe (Research Diets; New Brunswick, N.J.; Western Diet composition). The Western Diet contained greater then 5 times more fat then normal chow. [table] Mice were weighed daily beginning from the start of the 24 hr fasting period. Food intake was monitored continuously. Mice were bled by retroorbital eyebleed on days 7, 14, 21 and 28 after the initiation of the study. On day of REB mice were dosed 1× with full dose 1 hr prior to bleed. Fat pads were dissected at the end of the study (day 31) weighed and frozen. The following fat pads were dissected: brown, inguinal, axial, mesenteric, renal and epidydimal. Data were averaged and analyzed by ANOVA followed by a post-hoc Tukey's test with a p value of less then 0.05 indicating a statistical difference.
# Db/Db mice [3] = assay: Blood glucose and serum insulin levels in db/db mice, 56 days; format: in vivo
# Description: Blood glucose levels were measured once per week and serum insulin levels measured at the beginning and at the end of the study.
# Zucker rats = assay: In vivo Zucker rat study (oral glucose challenge); conditions: 30 mg/kg ip; glucose 1.5 g/kg; 30 and 270 minutes after administration
# Description: Zucker rats and corresponding lean rats were supplied by Harlan. Rats were fed a normal diet, ad libitum, and kept on a 12 hr light/dark cycle. Rats were housed 3 per cage. At 12 weeks of age, Zucker rats were administered Compound 102 at a concentration of 30 mg/kg (ip). Blood glucose levels were measured 30 minutes after administration. Forty-five minutes after drug administration, animals were administered a glucose solution (1.5 g/kg) by oral gavage. Blood glucose levels were measured every 30 minutes after gavage for 4.5 hrs. There were 3 groups with 3 animals per group: 1) 3 Zucker leans (no drug; no glucose treatment); 2) Zucker vehicle treated group (glucose challenged and 3) Zucker Compound 102 treatment (30 mg/kg); glucose challenged.
# Db/Db mice [4] = assay: In vivo Db/Db mouse study; conditions: for acute blood glucose response: upon study initiation and on weekly blood glucose testing
# Description: Db/Db and Db/lean mice were obtained from Harlan at 6 weeks of age. Mice were housed 3 per cage and fed ad libitum normal rodent chow. Mice were kept on a 12 hr Light:dark cycle.
# The study was initiated when mice reached an age of 8 weeks and their baseline blood glucose levels were greater than 200 mg/dl. Compound 102 was formulated in PBS: 2N HCl (99:1) at concentrations of 0.5, 1.5 and 5 mg/ml. Mice were dosed at volumes of 10 ml/kg to produce doses of 5, 15 and 50 mg/kg/dose. Mice were dosed twice per day at an 8 hr interval (8 am and 4 pm) during the light cycle.
# For the acute blood glucose measurements, blood glucose levels were measured after the animals received their first dose of Compound 102. Blood glucose levels were measured two hours after this initial injection.
# Mice were administered vehicle or drug (i.e., Compound 102) (5, 15, and 50 mg/kg) twice per day (bid) for the 28 days. Mouse weight and food intake were monitored daily. Food intake is reported as food intake (grams) per mouse per 24 hr period.
# pancreatic β-cells = assay: Pancreatic β-cell degeneration in db/db mice (insulin antibody staining of pancreas); format: in vivo
# Description: Db/db mice were administered Compound 102 (100 mg/kg) for 60 days. At the end of the treatment period, pancreases were removed, post-fixed, sectioned and stained with insulin antibody to visualize pancreatic β-cells. Vehicle treated db/db mice expressed dramatically less insulin staining than lean control mice.
# leptin = assay: Leptin levels in Western diet treated animals (ELISA); format: in vivo, mice; conditions: animals fed a western diet
# Description: Blood from mice that were on western diet (Compound 102) were analyzed for leptin levels. Mice were bled by retroorbital eyebleed on days 7, 14, 21 and 28 after the initiation of the study. On day of REB mice were dosed once with full dose 1 hr prior to bleed. Leptin levels were determined by ELISA (R&D Systems) as per directions. Data are expressed as the average±SEM. Data were averaged and analyzed by ANOVA followed by a post-hoc Tukey's test with a p value of less then 0.05 indicating a statistical difference.
# [5] = Western diet, fat pads dissected day 31
# [6] = study 1, single administration, 30 mg/kg
# [7] = IP, twice/day, four weeks, 5, 15 and 50 mg/kg
# [8] = chronic treatment, histology, vs untreated controls, FIG. 2
smiles,measurement,setting,value
O=c1ncc(Oc2cccc(Cl)c2)c[nH]1 [Compound 105],baseline blood glucose levels,[1]; data not shown,significantly depressed
same,blood glucose levels,"[1]; oral glucose tolerance test, overall statement",dramatic reductions
same,blood glucose levels at all time points after administration,[1]; single dose 2 mg/kg,significantly (P<0.05) reduced
same,blood glucose levels at all time points after administration,[1]; single dose 10 mg/kg,significantly (P<0.05) reduced
Cc1cccc(Oc2cnc(=O)[nH]c2)c1 [Compound 102],food intake,[2]; Western / high fat diet fed mice,not affected; also recorded: independent of an effect on food intake; also recorded: normal food intake
same,"brown, axial, inguinal, renal and epipdydimal fat pad increases",[2]; [5],significantly reduced
same,mesenteric fat pad levels,[2]; [5],not
same,weight gain,"[2]; Western diet, highest dose tested (30 mg/kg/day), absolute weight and weight change from day 0",significantly reduced
same,defecation,"[2]; chronic administration, high fat diet",defecated normally
same,hyperactivity normally associated with the amphetamine class of weight-loss drugs,"[2]; mouse, in vivo",did not display the hyperactivity
same,"animals fed a western diet and treated, compared with normal diet (weight gain, food intake, fat pad development, leptin)",[2]; summary of Examples 2 and 3,do not look different from those fed a normal diet
same,weight change / weight-gain response,"[2]; western (high fat) diet fed animals, chronic administration, dose not stated",significant alteration; also recorded: significantly inhibited
same,fat pad development,[2]; western diet fed animals,reduction in fat pad development
same,serum insulin levels,"Db/Db mice [3]; 30 mg/kg daily for 56 days, beginning vs end of study, FIG. 1",significantly slowed the loss; also recorded: prevention of the loss of serum insulin levels
same,blood glucose levels,"Db/Db mice [3]; 30 mg/kg daily for 56 days, measured once per week, FIG. 1",attenuated the progressive rise; also recorded: decrease in blood glucose
same,extent of serum insulin lowering associated with pancreatic β-cell loss,"Db/Db mice [3]; db/db mice, compared among Compound 102, vehicle and rosiglitazone",do not exhibit the extent of serum insulin lowering
same,blood glucose levels produced by oral glucose administration,[1]; [6],significantly attenuated
same,normal blood glucose levels (pre-glucose loading),[1]; [6],significantly decreased
same,time after drug administration at which significance was lost,[1]; [6],90 min
same,effect on blood glucose levels,"[1]; study 2, increased dosing",more dramatic effect
same,blood glucose levels after oral glucose administration,Zucker rats,reduced blood glucose levels at both time points
same,acute blood glucose response,Db/Db mice [4]; 15 mg/kg dose group,acute dose response
same,acute blood glucose response,Db/Db mice [4]; 50 mg/kg dose group,acute dose response
same,effect on animal weight gain,Db/Db mice [4]; [7],dose dependent effect
same,effect on blood glucose levels,Db/Db mice [4]; [7],dose dependent effect
same,blood glucose levels following acute administration,Db/Db mice [4]; measured two hours after first dose,reduce blood glucose levels
same,insulin staining of pancreas sections,pancreatic β-cells; 100 mg/kg for 60 days,significantly higher levels of insulin staining than vehicle treated mice
same,islet insulin content,pancreatic β-cells; [8],increased insulin content
same,islet structure,pancreatic β-cells; [8],better preserved islet structure
same,pancreatic β-cell degeneration,"pancreatic β-cells; db/db mice, FIG. 2",prevents β-cell degeneration; also recorded: prevention of pancreatic β-cell degeneration
same,blood leptin levels,leptin,reduced leptin levels to those fed a normal diet

# From patent US12011445B2, “Prevention of pancreatic cell degeneration” (Melior Pharmaceuticals I, Inc., priority 2010, dated 2024)
